This is an account of results in patent publication EP1192182B1, “PITUITARY ADENYLATE CYCLASE ACTIVATING PEPTIDE (PACAP) RECEPTOR 3 (R3) AGONISTS AND THEIR PHARMACOLOGICAL METHODS OF USE” (priority 1999, dated 2001).

Positions of bridges follow the written chain, without caps; N, C: chain ends. Non-standard residues stand in square brackets, D forms with d. Residues, ends and D or L forms follow the SMILES beside them. Nle = CCCC[C@H](N)C(=O)O

For test [1], the system named is guinea pig tracheal smooth muscle. The conditions noted are these: Bolin et al 1995; US 5,677,419; cited from earlier work.
Test [2] is described as follows: Airway hyperresponsiveness in the primate acute asthma model. Format: in vivo, cynomolgus monkeys (Macaca fascicularis). The method, then: Male cynomolgus monkeys (Macaca fascicularis) used in this study were maintained at constant temperature and humidity, with a twelve hour light cycle. They were fed twice daily, except on an experimental day when food was withheld the night before the procedure. Water was available ad lib at all times.
Airway hyperresponsiveness (AHR)(baseline) was measured 1 week before the control (no treatment) antigen challenge, and again 24hrs after antigen challenge. Antigen-induced airway hyperresponsiveness was measured by a fall in the PC100 (the concentration of methacholine required to cause a 100% increase in lung resistance) at 24hr compared to baseline. After 2 weeks rest, another baseline measurement of AHR was performed. […] AHR was again measured, and the fall in PC100 with treatment was compared to that without treatment. […]
The endotracheal tube was connected to a Harvard Ventilator adjusted to deliver 30-35 breaths per minute. Airflow was measured by a Fleisch pneumotachograph and thoracic pressure was measured by a validyne pressure transducer (as the difference between the pressure at the distal end of the et tube and room pressure). […]
Antigen challenge: This was an inhalation challenge with Ascaris suum. […] 30 breaths of antigen were administered after which the acute bronchoconstriction was monitored for 15min. […]

The next test deals with T1, PACAP-R3 (Homo sapiens, UniProt P41587).
T1 sequence (P41587 24-438): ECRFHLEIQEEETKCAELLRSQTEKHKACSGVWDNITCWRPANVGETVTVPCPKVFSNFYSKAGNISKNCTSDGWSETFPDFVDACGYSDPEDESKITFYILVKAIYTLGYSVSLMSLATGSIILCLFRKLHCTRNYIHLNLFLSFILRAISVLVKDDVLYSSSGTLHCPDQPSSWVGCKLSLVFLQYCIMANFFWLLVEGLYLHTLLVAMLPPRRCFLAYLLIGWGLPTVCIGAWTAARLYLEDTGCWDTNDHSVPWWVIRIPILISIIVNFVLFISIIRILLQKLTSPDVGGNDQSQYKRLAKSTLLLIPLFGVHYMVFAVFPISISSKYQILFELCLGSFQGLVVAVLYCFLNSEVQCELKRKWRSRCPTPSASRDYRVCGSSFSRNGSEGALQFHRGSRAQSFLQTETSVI
As to conditions: literature; cited from earlier work.

Test [3] can be described thus: Intraperitoneal glucose tolerance test (IPGTT), plasma glucose. The test is classed as in vivo, Wistar rats. The conditions noted are these: plasma glucose area under the curve after IPGTT (1 g/kg glucose), % of vehicle; 1 nmol/kg peptide i.v. Here is the method: Wistar rats are fasted overnight and then anesthetized with pentobarbital. The rats were eye-bled (zero time) and the peptide ( in 1% human albumin) was injected into the tail vein. Five minutes later, 1 g/kg of glucose (in saline) was injected intraperitoneally, and the rats were eye-bled after 15, 30 and 60 minutes. Plasma glucose levels were determined using the Technicon Axon autoanalyzer, Bayer Diagnosics division of Bayer Corporation, Tarrytown NY, operated using Method No. SM4-2143F90 "Glucose".
In accordance with the protocol of example 2 above, overnight fasted Wistar rats were anesthetized with pentobarital; i.v. injected with glucose ± peptide and eye bled after 1 minute. N=12 rats/group. […] The peptide or vehicle was given i.v. followed by a glucose load given i.p. in accordance with example 3. The plasma glucose was followed over the time period indicated.
Wistar rats were fasted overnight and then anesthetized with Pentobarbital. The rats were eye-bled (zero time) and the peptide (in 1 % human albumin) was injected subcutaneously. Five minutes later, 1 g/kg of glucose (in saline) was injected intraperitoneally, and the rats were eye-bled after 30 minutes.
Plasma glucose: Data are expressed as % of vehicle of plasma glucose area under the curve after IPGTT (1 g/kg glucose) after treatment with 1 nmol/kg dose of the peptide. […] The present Inventors have shown for the first time that this is because the effects of R2 and R3 on glucose tend to cancel each other out. […] Therefore, R3-selectlvlty appears to be a desirable attribute for medicaments which are to be employed in achieving blood glucose reduction, for treatment of type 2 diabetes.

A further test has as its system rat islets. Nature of the test: Insulin release from isolated rat islets. Format: cell-based, Sprague-Dawley rats. As to conditions: peptide 10nM for 2hrs, 8mM glucose; % of [insulin] in 8mM glucose alone. The method, then: Sprague Dawley rats (275-320 g) were used as the source of donor islets. Briefly, the pancreas was filled with 10 ml of cold reconstituted Liberase RI (Boehringer Manheim), harvested and incubated with additional 5 ml enzyme solution in water bath for 30 minutes. Tissue suspension was washed twice with cold 10% FBS/Hanks buffer (Gibco), resuspended in 8 ml 25% ficoll (Sigma) and then layered with 5 ml each of 23%, 20% and 11 % ficoll. The islets in the 20% layer after centrifugation were removed, washed twice with cold 10% FBS/Hank buffer and resuspended in 10% FBS/RPMI 1640 media (Sigma).
Islet insulin release: Rat islets were isolated from Sprague-Dawley rats as described in example 1 and treated with either vehicle or specified peptide (10nM) for 2hrs. Insulin concentration in the medium was measured with the Linco rat insulin RIA kit. Glucose concentration in the medium was 8mM. The data are expressed as % of [insulin] in 8mM glucose alone. No polypeptide-induced Increases in insulin concentration were observed al 3 mM glucose; thus, the insulin releasing activity of these polypeptides are glucose-dependent. It should be noted that the following Table includes data for polypeptides which are not part of the present invention.

For `CCCC[C@H](NC(=O)[C@H](CCC(N)=O)NC(=O)[C@H](CCCCN)NC(=O)[C@H](CCCNC(=N)N)NC(=O)[C@H](CC(C)C)NC(=O)[C@H](CCCCN)NC(=O)[C@@H](NC(=O)[C@H](Cc1ccc(O)cc1)NC(=O)[C@H](CC(N)=O)NC(=O)[C@H](CCC(=O)O)NC(=O)[C@@H](NC(=O)[C@H](Cc1ccccc1)NC(=O)[C@@H](NC(=O)[C@H](C)NC(=O)[C@H](CC(=O)O)NC(=O)[C@H](CO)NC(=O)[C@H](Cc1c[nH]cn1)NC(C)=O)C(C)C)[C@@H](C)O)[C@@H](C)O)C(=O)N[C@@H](C)C(=O)N[C@@H](C)C(=O)N[C@@H](CCCCN)C(=O)N[C@H]1CCCCNC(=O)C[C@@H](C(=O)N[C@@H](CC(C)C)C(=O)N[C@@H](CCCCN)C(=O)N[C@@H](CCCCN)C(=O)NCC(=O)NCC(=O)N[C@H](C(N)=O)[C@@H](C)O)NC(=O)[C@H](CC(N)=O)NC(=O)[C@H](CC(C)C)NC(=O)[C@H](Cc2ccc(O)cc2)NC1=O` [Peptide R3P0] (Ac-HSDAVFTENYTKLRKQ[Nle]AAKKYLNDLKKGGT-NH2; lactam 21-25 (inferred)), the “relaxing guinea pig tracheal smooth muscle” value in test [1] was “active”. The “Delta log10 PC100, Mean, Treated” value in test [2] (0.6ug/mg aerosol 10 minutes before antigen challenge, +24hr minus baseline, N 4) is on record as -0.150. The “% Inhibition of induced AHR” value in test [2] (0.6ug/mg aerosol, P(Treated vs Control) 0.240) is 54%. Further, the PACAP-R3 selectivity result at PACAP-R3 was “greater than 100 fold”. Besides, the “Plasma Glucose (% of Basal) i.v.” value in test [3] is recorded as 77 % of Basal. The “Islet Insulin Release (% of Basal)” value in the test on rat islets is given as 264 % of Basal.
